Test system: Caco-2/THP1-Blue cell co-cultures
Test: Transepithelial electrical resistance (TEER) of Caco-2/THP1-Blue co-cultures, model of mild intestinal barrier disruption
Format: cell-based, human
Conditions: 48 h colonic fermentation samples, filtered and sterilized; TEER after 24 h
Description: This study used an in vitro cell co-culture to create a model of mild intestinal barrier disruption. This method utilizes a co-culture model of intestinal epithelial-like cells (Caco-2 cells) and human monocytes/macrophages (THP1 cells) and is based on the work of Satsu and colleagues (PMID: 17010338) and is described by Daguet et al. (doi: 10.1016r.jff.2015.11.005). Caco-2 cells are allowed to grow into a monolayer that has physiological properties of the intestinal lining, including tight junctions. Tight junction proteins keep adjacent epithelial cells together, which forms a barrier that is virtually impermeable to macromolecules. The “tightness” of tight junctions can be measured as transepithelial electrical resistance (TEER), with a high TEER corresponding to a tighter barrier. THP1 monocytes were originally isolated from a human patient with acute leukemia. When stimulated with phorbol 12-myristate 13-acetate (PMA), these cells develop into macrophage-like cells that are able to adhere and are primed for toll-like receptor (TLR) signaling. […] TEER was measured after pre-treatment of the cell co-cultures, representing a baseline (0 hour) value. […] Changes in TEER values were measured after 24 hours.
TEER was measured 24 h after pre-treatment of the co-cultures and each 24 h value was normalized to its corresponding Oh value and is shown as percentage of initial value. […]

CCCC(=O)OCC(COC(=O)CCC)OC(=O)CCC [tributyrin]
barrier integrity (TEER) compared to the blank control: improved barrier integrity

Reference: US20240252557A1, “MULTIBIOTIC SUPPLEMENTS” (Natals, Inc., priority 2023, published 2024)
